Data taken from paper PMC6438725 (Arthritis & rheumatology (Hoboken, N.J.), 2019).
Several values for one entry are separate records, joined by “and”; a condition that tells them apart may be missing. Identical values can stand only once. Non-standard residues stand in square brackets, D forms with d. Residues, ends and D or L forms follow the SMILES beside them. No end group written: not given here. Cit = NC(=O)NCCC[C@H](N)C(=O)O

Molecular target: DR0401 (HLA-DRB1*04:01) (Homo sapiens, UniProt P01903+P01911, A100K/A169T/F76Y/I96L/K127E/L162R/M171V/N62H/P40V/Q125Y/R42H/S133A/S149N/S66Y/V115G/V209L/W38E)
Test: Peptide binding to DR0401

Compound | EC50 | Binding to DR0401 (in words) (data not shown)
CC[C@H](C)[C@H](NC(=O)[C@@H](NC(=O)[C@H](CCCNC(N)=O)NC(=O)[C@H](CC(C)C)NC(=O)[C@@H](NC(=O)[C@@H](NC(=O)[C@H](Cc1ccccc1)NC(=O)[C@@H](NC(=O)[C@H](Cc1c[nH]c2ccccc12)NC(=O)[C@H](CC(C)C)NC(=O)[C@H](CC(C)C)NC(=O)[C@@H](N)[C@@H](C)O)C(C)C)C(C)C)[C@@H](C)O)C(C)C)C(=O)N[C@H](C(=O)N[C@@H](C)C(=O)N[C@@H](C)C(=O)N[C@H](C(=O)N[C@H](C(=O)N[C@H](C(=O)O)C(C)C)[C@@H](C)O)C(C)C)[C@@H](C)O [agg 3-20] (H-TLLWVFVTL[Cit]VITAAVTV-OH) | 35.3 µM and 36.1 µM | 
CC[C@H](C)[C@H](NC(=O)[C@@H]1CCCN1C(=O)[C@H](Cc1ccc(O)cc1)NC(=O)[C@H](CCCNC(N)=O)NC(=O)[C@@H](NC(=O)[C@H](CO)NC(=O)[C@H](CCCNC(N)=O)NC(=O)[C@H](CC(=O)O)NC(=O)[C@H](C)NC(=O)[C@H](CC(C)C)NC(=O)[C@H](Cc1c[nH]c2ccccc12)NC(=O)CNC(=O)[C@H](C)NC(=O)[C@@H](N)CO)C(C)C)C(=O)N[C@@H](CO)C(=O)N[C@@H](CCCCN)C(=O)O [agg 298-313] (H-SAGWLAD[Cit]SV[Cit]YPISK-OH) | 1.9 µM and 2.94 µM | 
CC(C)C[C@H](NC(=O)[C@H](CO)NC(=O)[C@H](Cc1ccc(O)cc1)NC(=O)[C@H](CCCNC(N)=O)NC(=O)[C@@H](NC(=O)[C@@H]1CCCN1C(=O)CNC(=O)[C@@H]1CCCN1C(=O)[C@H](CCCNC(N)=O)NC(=O)[C@H](Cc1ccc(O)cc1)NC(=O)[C@H](Cc1c[nH]cn1)NC(=O)[C@H](Cc1ccccc1)NC(=O)[C@@H](NC(=O)[C@@H](NC(=O)CN)C(C)C)C(C)C)[C@@H](C)O)C(=O)N[C@H](C(=O)N[C@@H](Cc1ccccc1)C(=O)O)[C@@H](C)O [agg 477] (H-GVVFHY[Cit]PGPT[Cit]YSLTF-OH) | 14.7 µM and > 100 µM | 
CC(C)C[C@H](NC(=O)[C@H](CCCNC(N)=O)NC(=O)[C@H](CC(=O)O)NC(=O)[C@@H](NC(=O)[C@H](Cc1ccccc1)NC(=O)[C@H](CS)NC(=O)[C@H](Cc1ccc(O)cc1)NC(=O)[C@@H](NC(=O)[C@@H](N)CC(=O)O)C(C)C)C(C)C)C(=O)N[C@@H](CCC(=O)O)C(=O)NCC(=O)N[C@@H](CCC(=O)O)C(=O)N[C@H](C(=O)N[C@@H](Cc1ccccc1)C(=O)N[C@@H](Cc1ccccc1)C(=O)N[C@@H](C)C(=O)O)C(C)C [agg 568] (H-DVYCFVD[Cit]LEGEVFFA-OH) | 23.4 µM and 3.06 µM | 
CC(C)C[C@H](NC(=O)[C@H](CCCNC(N)=O)NC(=O)[C@@H](NC(=O)[C@H](C)NC(=O)[C@H](Cc1ccccc1)NC(=O)[C@H](Cc1ccccc1)NC(=O)[C@@H](NC(=O)[C@@H](N)CCC(=O)O)C(C)C)[C@@H](C)O)C(=O)N[C@@H](CCC(=O)O)C(=O)N[C@@H](CCC(N)=O)C(=O)N[C@@H](Cc1ccccc1)C(=O)N[C@H](C(=O)N[C@@H](Cc1ccccc1)C(=O)N[C@@H](CCC(N)=O)C(=O)N[C@@H](CCC(=O)O)C(=O)O)[C@@H](C)O [agg 579] (H-EVFFAT[Cit]LEQFTFQE-OH) | 78.4 µM and 15.3 µM | 
CC[C@H](C)[C@H](NC(=O)[C@@H]1CCCN1C(=O)[C@H](Cc1ccc(O)cc1)NC(=O)[C@H](CCCNC(N)=O)NC(=O)[C@H](CC(C)C)NC(=O)[C@H](CO)NC(=O)CNC(=O)[C@H](CC(=O)O)NC(=O)[C@H](C)NC(=O)[C@H](CC(C)C)NC(=O)[C@H](Cc1c[nH]c2ccccc12)NC(=O)CNC(=O)[C@H](C)NC(=O)[C@H](Cc1ccc(O)cc1)NC(=O)[C@H](CS)NC(=O)[C@@H](N)CCCCN)C(=O)N[C@H](C(=O)O)C(C)C [agg 621] (H-KCYAGWLADGSL[Cit]YPIV-OH) | 6.9 µM and 4.66 µM | 
CC(C)C[C@H](NC(=O)[C@H](CS)NC(=O)[C@H](Cc1ccccc1)NC(=O)[C@@H]1CCCN1C(=O)[C@H](CO)NC(=O)[C@@H](N)CC(N)=O)C(=O)N[C@@H](CCC(=O)O)C(=O)N[C@@H](CCCNC(N)=O)C(=O)N[C@H](C(=O)N1CCC[C@H]1C(=O)N[C@@H](CC(C)C)C(=O)NCC(=O)N[C@@H](CO)C(=O)N1CCC[C@H]1C(=O)N[C@@H](CC(=O)O)C(=O)N1CCC[C@H]1C(=O)N[C@@H](C)C(=O)O)[C@@H](C)O [agg 684] (H-NSPFCLE[Cit]TPLGSPDPA-OH) | 0.12 µM and 0.13 µM | 
VVLLVATEG[Cit]VRVNSAYQDK [cit-Agg84, reference compound] |  | very low affinity
